Experimental data taken from patent US20150005347A1, “NITROGEN-CONTAINING HETEROCYCLIC DERIVATIVE HAVING 2-IMINO GROUP AND PEST CONTROL AGENT INCLUDING THE SAME” (MEIJI SEIKA PHARMA CO., LTD., priority 2012, published 2015).
Where two headings read alike, the source gives them in different places.

What was measured:
Assay type in all cases: in vivo
[1] = system: Musca domestica; assay: Pest control test of Musca domestica adults, sucrose pledget; settings: 50 ppm in 40% sucrose liquid; four days after release
Protocol: Test Example 21 Pest Control Test of Musca domestica
A drug solution of the compound of the present invention, which had been adjusted to be 50 ppm with a 40% sucrose liquid, was adsorbed on a pledget, and the pledget was put into a vial. Two adults reared indoors were released thereto. Thereafter, the adults were left to stand indoors at room temperature of 25° C. […] When two adults were all agonized in death, it was judged to be effective.

[2] = system: Sogatella furcifera exhibiting drug resistance to fipronil; assay: Foliar spray test, Sogatella furcifera exhibiting drug resistance to fipronil; settings: 96 h, read-out: mortality of larvae
Protocol: Test Example 17 Pest Control Test of Sogatella furcifera
(§1) A drug solution of the compound of the present invention at a predetermined concentration, which had been prepared so as to be a 10% acetone water (0.05% Tween20 available), was foliar sprayed to a rice seedling in pot culture. […] Thereafter, the larvae were left to stand in a thermostatic chamber (16 hours of light period-8 hours of dark period) at 25° C. […] Test in duplicate.
(§2) Mortality of larvae(%)={number of dead larvae/(number of survived larvae+number of dead larvae)}×100
Further, for the origin of test pests, insects of Sogatella furcifera collected outdoors within the city of Odawara in 2010 were used.

[3] = system: Nilaparvata lugens exhibiting drug resistance to imidacloprid; assay: Foliar spray test, Nilaparvata lugens exhibiting drug resistance to imidacloprid; settings: 144 h, read-out: mortality of larvae
Protocol: Test Example 16 Pest Control Test of Nilaparvata lugens
as §1, with “50%” for “10%”
as §2
Further, for the origin of test pests, insects of Nilaparvata lugens collected outdoors within the Fukuoka prefecture in 2005 were used.

[4] = system: Frankliniella occidentalis; assay: Pest control test of Frankliniella occidentalis, kidney bean leaf disk foliar spray; settings: Frankliniella occidentalis, foliar
In short: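 Kidney bean leaf disks (2.8 cm) sprayed with compound in 50% acetone water with 0.05% Tween20, air-dried, then infested with first instar larvae. Held at 25° C, 16 h light/8 h dark; larval mortality (%) calculated from dead versus total larvae, in duplicate.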

[5] = system: Laodelphax striatella; assay: Pest control test of Laodelphax striatella, soil irrigation treatment of rice seedling; settings: soil irrigation treatment
From the text: <Soil Irrigation Treatment Test>
Test Example 10 Pest Control Test of Laodelphax striatellua
(§3) A rice seedling in pot culture was subjected to soil irrigation treatment with a drug solution of the compound of the present invention at a predetermined concentration, which had been prepared so as to be a 10% acetone water. Three days after the treatment, ten second instar larvae of Laodelphax striatella were each released thereto. Thereafter, the larvae were left to stand in a thermostatic chamber (16 hours of light period-8 hours of dark period) at 25° C. […] The test was performed in duplicate.
as §2

[6] = system: susceptible populations of Laodelphax striatella; assay: Soil irrigation test, susceptible populations of Laodelphax striatella; settings: Rate 0.005 mg/pot
Protocol: as §3, with “Three days after the treatment, ten second instar larvae of Laodelphax striatella were each released thereto.” left out
as §2
Further, for comparison, the test against a populations of Laodelphax striatella which is highly susceptible to fipronil was performed by the same method as described above, and the results thereof are shown in Table 45.
(§4) In addition, for the origin of test pests, bugs collected within the Kumamoto prefecture in 2006 as the drug resistant Laodelphax striatella, and bugs successively reared indoors for a long time as the susceptible populations of Laodelphax striatella were used.

[7] = system: Sogatella furcifera; assay: Pest control test of Sogatella furcifera, soil irrigation treatment
Protocol: Test Example 11 Pest Control Test of Sogatella furcifera
as §3, with “Sogatella furcifera” for “Laodelphax striatella”
as §2

[8] = system: imidacloprid susceptible populations of Nilaparvata lugens; assay: Soil irrigation test, imidacloprid susceptible populations of Nilaparvata lugens
In short: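 Potted rice seedlings soil-irrigated with compound in 10% acetone water at set concentrations; larvae held at 25 °C, 16 h light/8 h dark. Mortality % = dead/(dead + survivors) ×100, duplicate. Susceptible population: Kagoshima-collected, long-term lab-reared.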

[9] = system: Laodelphax striatella exhibiting drug resistance to fipronil; assay: Soil irrigation test, Laodelphax striatella exhibiting drug resistance to fipronil
Protocol: Test Example 20 Pest Control Test of Laodelphax striatella
as §3, with “Three days after the treatment, ten second instar larvae of Laodelphax striatella were each released thereto.” left out
as §2, §4

[10] = system: Oulema oryzae; assay: Pest control test of Oulema oryzae, soil irrigation treatment; settings: 0.05 mg/seedling, three days after release
Protocol: Test Example 13 Pest Control Test of Oulema oryzae
as §3, with “two” for “ten”, “Oulema oryzae” for “Laodelphax striatella”
as §2

[11] = 72 h, read-out: mortality of larvae
[12] = read-out: % Mortality, Test Example7 Frankliniella occidentalis

FC(F)(F)C(=S)/N=c1\ccccn1Cc1ccc(Cl)nc1 [Compound 1-20, N-[1-((6-chloropyridin-3-yl)methyl)pyridin-2(1H)-ylidene]-2,2,2-trifluoroethanethioamide]
activity against adults (effective when two adults were all agonized in death) [1]: all the adults are agonized in death | mortality at 20 ppm [2]: ≥ 80% | mortality at 20 ppm [3]: ≥ 80% | mortality at 100 ppm [4, 11]: ≥ 80% | mortality at 500 ppm [4, 11]: ≥ 80% | mortality at 20 ppm [4, 12]: 50% | mortality at 100 ppm [4, 12]: 80% | % Mortality, Test Example 10 Laodelphax striatella ([5]; 0.005 mg/pot): 75% | % Mortality, Test Example 10 Laodelphax striatella ([5]; 0.01 mg/pot): 91% | % Mortality, Test Example 10 Laodelphax striatella ([5]; 0.05 mg/pot): 100% | Insecticidal effects against Laodelphax striatella (mortality of larvae %), Susceptible populations six days after the treatment [6]: 85% | % Mortality, Test Example 11 Sogatella furcifera ([7]; 0.005 mg/pot): 53% | % Mortality, Test Example 11 Sogatella furcifera ([7]; 0.01 mg/pot): 88% | Insecticidal effects against Nilaparvata lugens (mortality of larvae %), Susceptible populations three days after the treatment ([8]; Rate 0.01 mg/pot): 95% | Insecticidal effects against Nilaparvata lugens (mortality of larvae %), Susceptible populations three days after the treatment ([8]; Rate 0.05 mg/pot): 96% | Insecticidal effects against Laodelphax striatella (mortality of larvae %), Drug resistant populations six days after the treatment ([9]; Rate 0.005 mg/pot, drug resistant populations): 79% | insecticidal effects against drug resistant Laodelphax striatella ([9]; fipronil-resistant): high insecticidal effects | mortality of larvae against drug resistant populations compared with susceptible populations of Laodelphax striatella ([9]; fipronil-resistant vs susceptible): equivalent mortality of larvae | mortality of larvae [10]: ≥ 80%
